Usually IC50 stands for the concentration that gives 50% inhibition.

One compound from ChEMBL document CHEMBL1201862, “PubChem BioAssay data set” (2004) can be followed below.

The structures appear in SMILES notation. Activity calls are given as the source filed them. Rule as the data show it: actives have a measured IC50 and inactives only a lower limit.

For the test, the target named is T1, Sentrin-specific protease 7 (Homo sapiens, UniProt Q9BQF6).
T1 sequence (Q9BQF6 whole entry): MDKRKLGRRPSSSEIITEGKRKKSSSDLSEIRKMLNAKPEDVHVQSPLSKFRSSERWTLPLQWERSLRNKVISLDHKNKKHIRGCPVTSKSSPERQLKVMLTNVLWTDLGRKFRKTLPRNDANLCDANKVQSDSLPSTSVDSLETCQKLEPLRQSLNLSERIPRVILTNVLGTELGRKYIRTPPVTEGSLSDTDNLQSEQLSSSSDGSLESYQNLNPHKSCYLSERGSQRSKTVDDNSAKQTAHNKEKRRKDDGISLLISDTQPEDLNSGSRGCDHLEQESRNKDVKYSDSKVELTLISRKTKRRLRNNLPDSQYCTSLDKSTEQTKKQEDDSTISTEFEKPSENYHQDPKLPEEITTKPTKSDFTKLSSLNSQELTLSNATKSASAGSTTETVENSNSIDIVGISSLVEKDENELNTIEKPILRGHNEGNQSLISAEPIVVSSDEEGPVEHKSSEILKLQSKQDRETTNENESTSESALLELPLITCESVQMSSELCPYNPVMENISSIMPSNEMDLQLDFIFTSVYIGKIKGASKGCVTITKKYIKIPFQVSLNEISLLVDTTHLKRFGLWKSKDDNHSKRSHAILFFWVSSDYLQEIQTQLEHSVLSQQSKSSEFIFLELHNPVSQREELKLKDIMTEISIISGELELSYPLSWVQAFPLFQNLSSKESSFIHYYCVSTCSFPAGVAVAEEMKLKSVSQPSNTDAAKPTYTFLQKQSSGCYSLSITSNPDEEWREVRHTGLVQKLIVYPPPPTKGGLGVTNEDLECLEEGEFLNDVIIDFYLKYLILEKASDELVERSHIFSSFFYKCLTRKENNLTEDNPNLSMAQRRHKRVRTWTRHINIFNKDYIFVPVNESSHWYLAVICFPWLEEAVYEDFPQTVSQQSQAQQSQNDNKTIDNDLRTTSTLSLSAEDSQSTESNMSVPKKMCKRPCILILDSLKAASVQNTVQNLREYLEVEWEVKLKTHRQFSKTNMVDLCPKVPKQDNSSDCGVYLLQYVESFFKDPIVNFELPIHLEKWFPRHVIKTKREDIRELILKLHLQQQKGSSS
The class given is functional.
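Also: Luminescence-based dose-response confirmation of ultra-high-throughput screening hits, measuring inhibition of SENP7.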

Turning to `N#Cc1c(NC(=O)CSc2nc[nH]n2)sc2c1CCCCC2`, the IC50 is 5.65 µM (active).
